{
  "source": "patent US7713926B2",
  "about": "“Method of producing partial peptide of enolase protein from Plasmodium falciparum” (National University Corporation Gunma University, priority 2004, dated 2010)",
  "test_system": "antibodies existing in sera from Plasmodium falciparum malaria patients and non-infected individuals",
  "experiment": "Fluorescent ELISA of human sera on plate-fixed peptide compound (antibody level)",
  "type": "binding",
  "settings": "peptide fixed on plastic plate as antigen",
  "procedure": "An antigen solution was prepared by dissolving 500 μg of the peptide compound (SEQ ID NO: 13) synthesized in Example 10 in 100 μl of dimethyl sulfoxide and by subsequently adding 1900 μl of a 0.05 M carbonate buffer (pH 9.6). The prepared antigen solution was dispensed by […] in each of […] on a plastic plate for fixation of the peptide compound.\nThe sera collected from Plasmodium falciparum malaria patients under informed consent at hospitals in Japan were used as subject sera, and the sera collected from non-infected individuals under informed consent in Japan were used as control sera. The subject sera and the control sera were individually added to the wells on the plastic plate to allow the antibodies existing in the respective sera to react with the peptide compound (SEQ ID NO: 13).\nAfter removal of the serum, an enzyme-labeled secondary antibody against human immunoglobulin was added to each well for the immunological reaction. […] The measured antibody levels were expressed by relative fluorescence unit (RFU values).\nFIG. 7 is a graph showing antibody levels of sera (1-7) from Plasmodium falciparum-infected patients and those of sera (8-12) from non-infected individuals (for the purpose of comparison) measured by the fluorescent ELISA method with the synthesized peptide compound (SEQ ID NO: 13). […]",
  "data": [
    {"substance": "H-Glu-Glu-Glu-Glu-Ala-Ser-Glu-Phe-Tyr-Asn-Ser-Glu-Asn-Lys-Thr-Tyr-Asp-Leu-Asp-Phe-Lys-Thr-Pro-Asn-Asn-Asp-Gly-Gly-OH (H-EEEEASEFYNSENKTYDLDFKTPNNDGG-OH) [SEQ ID NO: 13, partial peptide of enolase from Plasmodium falciparum, used as ELISA antigen]", "values": [
      {"measurement": "average antibody level of the non-infected individuals", "setting": "control sera (8-12) from non-infected individuals, same fluorescent ELISA", "value": 67, "unit": "RFU"},
      {"measurement": "average antibody level of the malaria patients", "setting": "sera (1-7) from Plasmodium falciparum-infected patients, enzyme-labeled secondary antibody against human immunoglobulin, 4-methylumbelliferyl phosphate", "value": 181, "unit": "RFU"}
    ]}
  ]
}
